Assay results from the NIST ThermoML archive (doi:10.1016/j.jct.2003.11.008).
Numbers after ± are expanded uncertainties.

Tests used:
[1] = xn = mol fraction of the nth substance listed; conditions: 318.15 K, 101.3 kPa, Liquid
[2] = excess molar enthalpy (molar enthalpy of mixing); xn = mol fraction of the nth substance listed; conditions: 318.15 K, 101.3 kPa, Liquid

CCCCOC(C)=O [butyl ethanoate] + CCCCCCC
Conditions	excess molar enthalpy [kcal/mol]	excess molar volume [m3/mol]
[1], x1 = 0.0555	–	1.92e-07 ± 1.6e-08
[1], x1 = 0.1132	–	3.36e-07 ± 1.7e-08
[1], x1 = 0.1672	–	4.34e-07 ± 1.8e-08
[1], x1 = 0.22	–	5.12e-07 ± 1.8e-08
[1], x1 = 0.2722	–	5.77e-07 ± 1.8e-08
[1], x1 = 0.3229	–	6.09e-07 ± 1.8e-08
[1], x1 = 0.3726	–	6.31e-07 ± 1.8e-08
[1], x1 = 0.4298	–	6.52e-07 ± 1.9e-08
[1], x1 = 0.4755	–	6.52e-07 ± 1.9e-08
[1], x1 = 0.5265	–	6.24e-07 ± 1.8e-08
[1], x1 = 0.5779	–	5.89e-07 ± 1.8e-08
[1], x1 = 0.6271	–	5.55e-07 ± 1.8e-08
[1], x1 = 0.6607	–	5.13e-07 ± 1.8e-08
[1], x1 = 0.7709	–	3.86e-07 ± 1.7e-08
[1], x1 = 0.8611	–	2.64e-07 ± 1.7e-08
[1], x1 = 0.9342	–	1.22e-07 ± 1.6e-08
[2], x1 = 0.0596	0.0656 ± 0.00139	–
[2], x1 = 0.1274	0.12 ± 0.00222	–
[2], x1 = 0.1982	0.165 ± 0.00287	–
[2], x1 = 0.2667	0.196 ± 0.00335	–
[2], x1 = 0.3335	0.218 ± 0.00382	–
[2], x1 = 0.3922	0.23 ± 0.00406	–
[2], x1 = 0.4492	0.235 ± 0.00406	–
[2], x1 = 0.5003	0.236 ± 0.00406	–
[2], x1 = 0.5104	0.235 ± 0.00406	–
[2], x1 = 0.5381	0.234 ± 0.00406	–
[2], x1 = 0.5567	0.232 ± 0.00406	–
[2], x1 = 0.6057	0.224 ± 0.00382	–
[2], x1 = 0.6593	0.211 ± 0.00359	–
[2], x1 = 0.7144	0.19 ± 0.00335	–
[2], x1 = 0.7729	0.161 ± 0.00287	–
[2], x1 = 0.8331	0.126 ± 0.00232	–
[2], x1 = 0.8932	0.0849 ± 0.0017	–
[2], x1 = 0.9488	0.0439 ± 0.00105	–

CCCCOC(C)=O [butyl ethanoate] + CCCCCCCCC
Conditions	excess molar enthalpy [kcal/mol]	excess molar volume [m3/mol]
[1], x1 = 0.0761	–	2.63e-07 ± 1.7e-08
[1], x1 = 0.1325	–	4.29e-07 ± 1.7e-08
[1], x1 = 0.1914	–	5.63e-07 ± 1.8e-08
[1], x1 = 0.2533	–	6.69e-07 ± 1.9e-08
[1], x1 = 0.3151	–	7.6e-07 ± 1.9e-08
[1], x1 = 0.3713	–	8.09e-07 ± 1.9e-08
[1], x1 = 0.4229	–	8.37e-07 ± 1.9e-08
[1], x1 = 0.4749	–	8.55e-07 ± 1.9e-08
[1], x1 = 0.5222	–	8.55e-07 ± 1.9e-08
[1], x1 = 0.5765	–	8.31e-07 ± 1.9e-08
[1], x1 = 0.6275	–	7.98e-07 ± 1.9e-08
[1], x1 = 0.6744	–	7.55e-07 ± 1.9e-08
[1], x1 = 0.7062	–	7.07e-07 ± 1.9e-08
[1], x1 = 0.8023	–	5.38e-07 ± 1.8e-08
[1], x1 = 0.8838	–	3.43e-07 ± 1.7e-08
[1], x1 = 0.9444	–	1.75e-07 ± 1.6e-08
[2], x1 = 0.0779	0.0816 ± 0.00165	–
[2], x1 = 0.1485	0.146 ± 0.00263	–
[2], x1 = 0.2301	0.2 ± 0.00359	–
[2], x1 = 0.3059	0.237 ± 0.00406	–
[2], x1 = 0.3775	0.261 ± 0.0043	–
[2], x1 = 0.442	0.271 ± 0.00454	–
[2], x1 = 0.5	0.272 ± 0.00454	–
[2], x1 = 0.5519	0.266 ± 0.00454	–
[2], x1 = 0.5963	0.256 ± 0.0043	–
[2], x1 = 0.6435	0.243 ± 0.00406	–
[2], x1 = 0.6936	0.227 ± 0.00382	–
[2], x1 = 0.7461	0.203 ± 0.00359	–
[2], x1 = 0.8009	0.172 ± 0.00311	–
[2], x1 = 0.8533	0.134 ± 0.00239	–
[2], x1 = 0.9067	0.0904 ± 0.00177	–
[2], x1 = 0.9568	0.0449 ± 0.00108	–

CCOC(C)=O [ethyl acetate] + CCCCCCC
Conditions	excess molar enthalpy [kcal/mol]	excess molar volume [m3/mol]
[1], x1 = 0.0808	–	4.63e-07 ± 1.8e-08
[1], x1 = 0.143	–	7.33e-07 ± 1.9e-08
[1], x1 = 0.2084	–	9.35e-07 ± 2e-08
[1], x1 = 0.2751	–	1.105e-06 ± 2.1e-08
[1], x1 = 0.3329	–	1.204e-06 ± 2.1e-08
[1], x1 = 0.3968	–	1.263e-06 ± 2.1e-08
[1], x1 = 0.4462	–	1.303e-06 ± 2.2e-08
[1], x1 = 0.5057	–	1.309e-06 ± 2.2e-08
[1], x1 = 0.5536	–	1.289e-06 ± 2.1e-08
[1], x1 = 0.6019	–	1.236e-06 ± 2.1e-08
[1], x1 = 0.6506	–	1.163e-06 ± 2.1e-08
[1], x1 = 0.6848	–	1.107e-06 ± 2.1e-08
[1], x1 = 0.7249	–	1.019e-06 ± 2e-08
[1], x1 = 0.8166	–	7.67e-07 ± 1.9e-08
[1], x1 = 0.8964	–	4.43e-07 ± 1.8e-08
[1], x1 = 0.9478	–	2.47e-07 ± 1.7e-08
[2], x1 = 0.0803	0.113 ± 0.00213	–
[2], x1 = 0.1683	0.2 ± 0.00359	–
[2], x1 = 0.2488	0.27 ± 0.00454	–
[2], x1 = 0.323	0.317 ± 0.00526	–
[2], x1 = 0.395	0.346 ± 0.00574	–
[2], x1 = 0.4614	0.359 ± 0.00598	–
[2], x1 = 0.5037	0.361 ± 0.00598	–
[2], x1 = 0.546	0.363 ± 0.00598	–
[2], x1 = 0.5784	0.357 ± 0.00598	–
[2], x1 = 0.5813	0.357 ± 0.00598	–
[2], x1 = 0.6222	0.341 ± 0.00574	–
[2], x1 = 0.6647	0.322 ± 0.00526	–
[2], x1 = 0.7146	0.296 ± 0.00502	–
[2], x1 = 0.7646	0.26 ± 0.0043	–
[2], x1 = 0.8157	0.217 ± 0.00382	–
[2], x1 = 0.8649	0.17 ± 0.00311	–
[2], x1 = 0.9129	0.115 ± 0.00217	–
[2], x1 = 0.9591	0.0596 ± 0.00131	–

CCCCCCCCCCCCCCCCC [heptadecane] + CCCCCOC(C)=O
Conditions	excess molar enthalpy [kcal/mol]	excess molar volume [m3/mol]
[1], x2 = 0.1194	–	3.74e-07 ± 1.7e-08
[1], x2 = 0.1753	–	5.21e-07 ± 1.8e-08
[1], x2 = 0.2989	–	7.64e-07 ± 1.9e-08
[1], x2 = 0.3689	–	8.67e-07 ± 2e-08
[1], x2 = 0.421	–	9.1e-07 ± 2e-08
[1], x2 = 0.4657	–	9.43e-07 ± 2e-08
[1], x2 = 0.5081	–	9.6e-07 ± 2e-08
[1], x2 = 0.5464	–	9.64e-07 ± 2e-08
[1], x2 = 0.6072	–	9.39e-07 ± 2e-08
[1], x2 = 0.6743	–	8.96e-07 ± 2e-08
[1], x2 = 0.7316	–	8.42e-07 ± 1.9e-08
[1], x2 = 0.7894	–	7.23e-07 ± 1.9e-08
[1], x2 = 0.8384	–	6.22e-07 ± 1.8e-08
[1], x2 = 0.8842	–	4.84e-07 ± 1.8e-08
[1], x2 = 0.9288	–	3.29e-07 ± 1.7e-08
[1], x2 = 0.9702	–	1.42e-07 ± 1.6e-08
[2], x2 = 0.0881	0.101 ± 0.00194	–
[2], x2 = 0.1856	0.188 ± 0.00335	–
[2], x2 = 0.2815	0.259 ± 0.0043	–
[2], x2 = 0.3678	0.306 ± 0.00502	–
[2], x2 = 0.4492	0.331 ± 0.0055	–
[2], x2 = 0.5202	0.339 ± 0.00574	–
[2], x2 = 0.5818	0.337 ± 0.0055	–
[2], x2 = 0.6246	0.326 ± 0.0055	–
[2], x2 = 0.6651	0.308 ± 0.00502	–
[2], x2 = 0.7105	0.285 ± 0.00478	–
[2], x2 = 0.7575	0.258 ± 0.0043	–
[2], x2 = 0.807	0.223 ± 0.00382	–
[2], x2 = 0.8571	0.18 ± 0.00311	–
[2], x2 = 0.905	0.13 ± 0.00239	–
[2], x2 = 0.9532	0.0725 ± 0.00151	–

CCCCCCCCCCCCCCCCC [heptadecane] + CCCCOC(C)=O
Conditions	excess molar enthalpy [kcal/mol]	excess molar volume [m3/mol]
[1], x2 = 0.0632	–	1.97e-07 ± 1.6e-08
[1], x2 = 0.104	–	3.47e-07 ± 1.7e-08
[1], x2 = 0.1206	–	3.85e-07 ± 1.7e-08
[1], x2 = 0.1949	–	5.9e-07 ± 1.8e-08
[1], x2 = 0.2755	–	7.8e-07 ± 1.9e-08
[1], x2 = 0.3444	–	9e-07 ± 2e-08
[1], x2 = 0.4115	–	9.79e-07 ± 2e-08
[1], x2 = 0.4696	–	1.048e-06 ± 2e-08
[1], x2 = 0.515	–	1.082e-06 ± 2.1e-08
[1], x2 = 0.5713	–	1.082e-06 ± 2.1e-08
[1], x2 = 0.6623	–	1.03e-06 ± 2e-08
[1], x2 = 0.7646	–	9.06e-07 ± 2e-08
[1], x2 = 0.842	–	6.95e-07 ± 1.9e-08
[1], x2 = 0.8976	–	5.2e-07 ± 1.8e-08
[1], x2 = 0.9384	–	3.47e-07 ± 1.7e-08
[1], x2 = 0.9717	–	1.79e-07 ± 1.6e-08
[2], x2 = 0.0954	0.11 ± 0.0021	–
[2], x2 = 0.1878	0.201 ± 0.00359	–
[2], x2 = 0.2686	0.269 ± 0.00454	–
[2], x2 = 0.3397	0.318 ± 0.00526	–
[2], x2 = 0.4009	0.349 ± 0.00574	–
[2], x2 = 0.4599	0.371 ± 0.00621	–
[2], x2 = 0.5118	0.382 ± 0.00621	–
[2], x2 = 0.5532	0.382 ± 0.00621	–
[2], x2 = 0.5903	0.381 ± 0.00621	–
[2], x2 = 0.5962	0.381 ± 0.00621	–
[2], x2 = 0.6293	0.369 ± 0.00598	–
[2], x2 = 0.6674	0.352 ± 0.00574	–
[2], x2 = 0.7073	0.332 ± 0.0055	–
[2], x2 = 0.7491	0.304 ± 0.00502	–
[2], x2 = 0.7926	0.271 ± 0.00454	–
[2], x2 = 0.8356	0.232 ± 0.00406	–
[2], x2 = 0.8781	0.187 ± 0.00335	–
[2], x2 = 0.9208	0.133 ± 0.00239	–
[2], x2 = 0.9615	0.0716 ± 0.00151	–
